# PMC7797062, “Structural basis for guide RNA trimming by RNase D ribonuclease in Trypanosoma brucei” (Nucleic Acids Research, 2020)
# Tests used:
# TbRND (RND-WT) = target: T1, TbRND (RND-WT) (Trypanosoma brucei, UniProt Q38DE2); assay: X-ray crystal structure (soak of apo crystals); assay type: binding; details: 10 mM NMP and 10 mM MnCl2 soak, 10 min
# T1 construct: gene Tb09.211.3670; residues 41-390 (N-terminal 40 residues with mitochondrial localization signal removed); codon-optimized gene; E. coli BL21(DE3); His-Sumo tag cut with Ulp1; monomer per asymmetric unit
# T1 sequence (Q38DE2 41-390): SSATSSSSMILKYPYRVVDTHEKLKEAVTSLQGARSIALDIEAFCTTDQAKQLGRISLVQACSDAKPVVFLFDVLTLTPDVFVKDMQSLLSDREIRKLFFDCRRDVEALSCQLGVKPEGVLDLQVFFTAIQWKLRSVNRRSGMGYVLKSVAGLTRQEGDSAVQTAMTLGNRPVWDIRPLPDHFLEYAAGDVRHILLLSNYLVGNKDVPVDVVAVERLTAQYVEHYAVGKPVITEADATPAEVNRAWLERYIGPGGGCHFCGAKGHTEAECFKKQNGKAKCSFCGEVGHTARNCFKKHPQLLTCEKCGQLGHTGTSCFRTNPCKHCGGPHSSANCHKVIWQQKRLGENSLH
# RND-Exo = target: T2, RND-Exo (Trypanosoma brucei, UniProt Q38DE2 41-296); assay: EMSA; no obvious shift up to 20 uM protein, 0.2 uM RNA; EMSA: 20 mM Tris-HCl pH 8.0, 200 mM NaCl, 2 mM DTT, 0.2 uM FAM-RNA, 1 h on ice; 6% native PAGE in 0.5x TBE at 4 C; details: protein: recombinant; tags: His-SUMO removed by Ulp1; label: 5'-FAM; single strand
# T2 sequence: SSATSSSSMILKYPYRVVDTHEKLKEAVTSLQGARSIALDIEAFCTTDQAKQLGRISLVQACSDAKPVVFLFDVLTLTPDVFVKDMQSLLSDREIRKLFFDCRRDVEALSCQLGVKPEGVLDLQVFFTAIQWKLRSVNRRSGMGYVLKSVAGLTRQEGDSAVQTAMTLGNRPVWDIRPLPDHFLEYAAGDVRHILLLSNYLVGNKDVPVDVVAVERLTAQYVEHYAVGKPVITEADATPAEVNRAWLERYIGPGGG
# TbRND ΔZF_3-4 = TbRND ΔZF_3-4 (Trypanosoma brucei, UniProt Q38DE2 41-341); assay: X-ray crystallography (1.77 A); Ca2+ (10 mM CaCl2), Zn2+; EMSA: 20 mM Tris-HCl pH 8.0, 200 mM NaCl, 2 mM DTT, 0.2 uM FAM-RNA, 1 h on ice; 6% native PAGE in 0.5x TBE at 4 C; details: protein: recombinant; tags: His-SUMO removed by Ulp1; single strand
molecule,measurement,setting,value
Nc1ncnc2c1ncn2[C@@H]1O[C@H](COP(=O)(O)O)[C@@H](O)[C@H]1O [AMP],X-ray crystal structure (soak of apo crystals),"TbRND (RND-WT); site: R0 of Exo domain (none in ZF1 groove), b55 says ATP soaked crystals",one AMP was captured at the R0 site in the A-form structure
O=c1ccn([C@@H]2O[C@H](COP(=O)(O)O)[C@@H](O)[C@H]2O)c(=O)[nH]1 [UMP],X-ray crystal structure (soak of apo crystals),TbRND (RND-WT); site: ZF1 groove,one well-defined UMP molecule was captured in the groove of ZF1
Nc1ccn([C@@H]2O[C@H](COP(=O)(O)O)[C@@H](O)[C@H]2O)c(=O)n1 [CMP],X-ray crystal structure (soak of apo crystals),"TbRND (RND-WT); site: ZF1 groove, also R2 site of Exo domain",one CMP nucleotide was bound in ZF1 groove
Nc1nc2c(ncn2[C@@H]2O[C@H](COP(=O)(O)O)[C@@H](O)[C@H]2O)c(=O)[nH]1 [GMP],X-ray crystal structure (soak of apo crystals),"TbRND (RND-WT); sites: R0 and R2 of Exo domain, ZF1 groove, ZF2 groove (Mn2+-dependent), 2.25 A",we observed two GMP molecules in the G-form structure
AACUUGUUUUUUUU (ssRNA) [RNA1],binding result,RND-Exo,no binding
UUUUUUUUUUUU (ssRNA) [RNA-12U],binding result,TbRND ΔZF_3-4,binds
